Where two headings read alike, the source gives them in different places.
What was measured:
[1] = tested on: healthy subjects; assay: CYP3A inhibitors study Cohort 2: safety assessments; format: in vivo, human; details: of 14 subjects, by treatment period
[2] = format: in vivo, human; details: for CL/F / AUC(0-inf) / AUC(0-t) / half-life / k el: Cohort 1: naldemedine 0.2 mg alone or with itraconazole 200 mg, n = 14; for AUC(0-inf): AUC0–inf; for AUC(0-t): AUC0–last; for half-life: t1/2,z; for k el: λz
[3] = tested on: healthy subjects; details: cited from earlier work
[4] = format: in vivo, human
[5] = tested on: spontaneous bowel movements; details: cited from earlier work
[6] = tested on: healthy subjects; assay: P-gp inhibitor study: safety assessments; format: in vivo, human; details: of 13 subjects
[7] = format: in vivo, human; details: for CL/F / AUC(0-inf) / AUC(0-t) / half-life / k el: Cohort 2: naldemedine 0.2 mg alone or with fluconazole 200 mg, n = 14; for AUC(0-inf): AUC0–inf; for AUC(0-t): AUC0–last; for half-life: t1/2,z; for k el: λz
[8] = tested on: healthy subjects; assay: CYP3A inducer study: safety assessments; details: of 14 subjects; by treatment period
[9] = tested on: healthy subjects; assay: CYP3A inhibitors study Cohort 1: safety assessments; format: in vivo, human; details: of 14 subjects, by treatment period
[10] = CYP3A inducer study: pharmacokinetics of naldemedine alone or with rifampin; format: in vivo, human; details: for AUC(0-inf): AUC0–inf; for AUC(0-t): AUC0–last; for half-life: t1/2,z; for k el: λz
[11] = 12 healthy male subjects; single oral 2-mg doses of 14C-naldemedine; cited from earlier work
[12] = coadministration of itraconazole vs naldemedine 0.2 mg alone
[13] = human, plasma, oral, 0.2 mg, geometric mean (CV %)
[14] = human, plasma, oral, 0.2 mg, mean (SD)
[15] = coadministration of cyclosporine 600 mg vs naldemedine 0.4 mg alone
[16] = male, human, plasma, oral, 0.4 mg
[17] = male, human, plasma, po, 0.4 mg
[18] = coadministration of fluconazole vs naldemedine 0.2 mg alone
[19] = coadministration of rifampin 600 mg QD vs naldemedine 0.2 mg alone
[20] = human, plasma, oral, 0.2 mg, naldemedine 0.2 mg alone or with rifampin 600 mg QD, n = 14, geometric mean (CV %)
[21] = human, plasma, oral, 0.2 mg, naldemedine 0.2 mg alone or with rifampin 600 mg QD, n = 14, mean (SD)

Question: What does the source list for `CC(C)(NC(=O)C1=C(O)[C@@H]2Oc3c(O)ccc4c3[C@@]23CCN(CC2CC2)[C@H](C4)[C@]3(O)C1)c1nc(-c2ccccc2)no1` [Naldemedine]?
Answer: subjects with TEAEs [1]: 7.1%; CL/F ([2]; geometric mean (CV %)): 7.41 (37.7) L/h; CL/F ([2]; mean (SD)): 8.03 (4.39) L/h; effect of coadministration on median naldemedine Tmax ([2]; coadministration of itraconazole): not notably affected; increase of naldemedine AUC0–inf [2, 12]: 2.91 fold; increase of naldemedine AUC0–last [2, 12]: 2.65 fold; increase of naldemedine Cmax [2, 12]: 1.12 fold; Cmax ([2]; human, plasma, oral, 0.2 mg): 3.56 ng/mL; Tmax ([2]; human, plasma, oral, 0.2 mg): 0.75 h; AUC(0-inf) [2, 13]: 27 ng·h/mL; AUC(0-inf) [2, 14]: 28.3 ng·h/mL; AUC(0-t) [2, 13]: 26.7 ng·h/mL; AUC(0-t) [2, 14]: 28.1 ng·h/mL; half-life [2, 13]: 10.4 h; half-life [2, 14]: 10.7 h; k el [2, 13]: 1.85e-05 s⁻¹; k el [2, 14]: 1.9e-05 s⁻¹; Cmax ([2]; human, plasma, po, 0.2 mg): 3.77 ng/mL; dose linearity of pharmacokinetics ([3]; dose range of 0.2–0.4 mg): linear pharmacokinetics; safety and tolerability ([3]; naldemedine doses of 0.1 to 100 mg, healthy subjects): safe and well tolerated; effect of coadministration on median naldemedine Tmax ([4]; coadministration of cyclosporine): not notably affected; increase of naldemedine AUC0–inf [4, 15]: 1.78 fold; increase of naldemedine AUC0–last [4, 15]: 1.79 fold; increase of naldemedine Cmax [4, 15]: 1.45 fold; AUC(0-inf) [4, 16]: 38.9 ng·h/mL; AUC(0-t) [4, 16]: 38.6 ng·h/mL; Cmax [4, 16]: 4.86 ng/mL; half-life [4, 16]: 10.6 h; k el [4, 16]: 1.81e-05 s⁻¹; AUC(0-inf) [4, 17]: 39.5 ng·h/mL; AUC(0-t) [4, 17]: 39.1 ng·h/mL; Cmax [4, 17]: 4.9 ng/mL; Tmax [4, 17]: 0.75 h; half-life [4, 17]: 10.7 h; k el [4, 17]: 1.82e-05 s⁻¹; CL/F ([4]; naldemedine 0.4 mg alone or with cyclosporine 600 mg, n = 13, geometric mean (CV %)): 10.3 (17.3) L/h; clinical benefit compared with placebo ([5]; naldemedine 0.1 mg): no significant differences; clinical benefit (spontaneous bowel movements) compared with placebo ([5]; naldemedine 0.2- and 0.4-mg doses): significant clinical benefits; subjects with TEAEs ([6]; naldemedine 0.4 mg alone or plus cyclosporine 600 mg): 7.7%; subjects with headache (TEAE) [6]: 7.7%; CL/F ([7]; geometric mean (CV %)): 7.36 (16.5) L/h; CL/F ([7]; mean (SD)): 7.45 (1.16) L/h; effect of coadministration on median naldemedine Tmax ([7]; coadministration of fluconazole): not notably affected; increase of naldemedine AUC0–inf [7, 18]: 1.90 fold; increase of naldemedine AUC0–last [7, 18]: 1.88 fold; increase of naldemedine Cmax [7, 18]: 1.38 fold; Cmax ([7]; human, plasma, oral, 0.2 mg): 3.48 ng/mL; Tmax ([7]; human, plasma, oral, 0.2 mg): 1 h; AUC(0-inf) [7, 13]: 27.2 ng·h/mL; AUC(0-inf) [7, 14]: 27.5 ng·h/mL; AUC(0-t) [7, 13]: 26.9 ng·h/mL; AUC(0-t) [7, 14]: 27.3 ng·h/mL; half-life [7, 13]: 10.1 h; half-life [7, 14]: 10.4 h; k el [7, 13]: 1.9e-05 s⁻¹; k el [7, 14]: 1.95e-05 s⁻¹; Cmax ([7]; human, plasma, po, 0.2 mg): 3.57 ng/mL; subjects with TEAEs [8]: no TEAEs; subjects with TEAEs [9]: 7.1%; effect of coadministration on median naldemedine Tmax ([10]; coadministration of rifampin): not notably affected; decrease of naldemedine AUC0–last [10, 19]: 83%; decrease of naldemedine Cmax [10, 19]: 38%; Cmax ([10]; human, plasma, oral, 0.2 mg): 2.72 ng/mL; Tmax ([10]; human, plasma, oral, 0.2 mg): 1 h; AUC(0-inf) [10, 20]: 21.8 ng·h/mL; AUC(0-inf) [10, 21]: 22.1 ng·h/mL; AUC(0-t) [10, 20]: 21.5 ng·h/mL; AUC(0-t) [10, 21]: 21.8 ng·h/mL; half-life [10, 20]: 11.7 h; half-life [10, 21]: 11.9 h; k el [10, 20]: 1.64e-05 s⁻¹; k el [10, 21]: 1.67e-05 s⁻¹; Cmax ([10]; human, plasma, po, 0.2 mg): 2.8 ng/mL; CL/F ([10]; naldemedine 0.2 mg alone or with rifampin 600 mg QD, n = 14, geometric mean (CV %)): 9.19 (19.2) L/h; CL/F ([10]; naldemedine 0.2 mg alone or with rifampin 600 mg QD, n = 14, mean (SD)): 9.35 (1.86) L/h; Tmax ([10]; naldemedine 0.2 mg alone or with rifampin 600 mg QD, n = 14, median (range)): 1.00 (0.50, 2.50) h

Question: With `CCC(C)n1ncn(-c2ccc(N3CCN(c4ccc(OCC5COC(Cn6cncn6)(c6ccc(Cl)cc6Cl)O5)cc4)CC3)cc2)c1=O` (stereo not drawn) [itraconazole, reference compound] as the compound, how does the “subjects with TEAEs” value [9] read?
Answer: The value was 14.3%.

Question: With `CC(C)(NC(=O)C1=C(O)[C@@H]2Oc3c(O)ccc4c3[C@@]23CCN[C@H](C4)[C@]3(O)C1)c1nc(-c2ccccc2)no1` [nor-naldemedine] as the compound, how does the “share of the systemic exposure of unchanged naldemedine” value [11] read?
Answer: Its value is 9–13%.

From paper PMC7242238 (Clinical Drug Investigation, 2020)
